Measured values published in ChEMBL document CHEMBL1201862, “PubChem BioAssay data set” (2004).
Active and inactive are the calls of the source.

Legend:
[1] = biological target: Large T antigen (Simian virus 40, UniProt P03070); format: functional, Betapolyomavirus macacae;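 further: Confirmatory-stage PubChem screen for compounds that inhibit SV40 T antigen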
[2] = biological target: T1, Mannose-6-phosphate isomerase (Homo sapiens, UniProt P34949); test: inhibitors of human PMI, primary screen, biochemical, fluorescence intensity, coupled assay (AID 1209)
T1 sequence (P34949 whole entry): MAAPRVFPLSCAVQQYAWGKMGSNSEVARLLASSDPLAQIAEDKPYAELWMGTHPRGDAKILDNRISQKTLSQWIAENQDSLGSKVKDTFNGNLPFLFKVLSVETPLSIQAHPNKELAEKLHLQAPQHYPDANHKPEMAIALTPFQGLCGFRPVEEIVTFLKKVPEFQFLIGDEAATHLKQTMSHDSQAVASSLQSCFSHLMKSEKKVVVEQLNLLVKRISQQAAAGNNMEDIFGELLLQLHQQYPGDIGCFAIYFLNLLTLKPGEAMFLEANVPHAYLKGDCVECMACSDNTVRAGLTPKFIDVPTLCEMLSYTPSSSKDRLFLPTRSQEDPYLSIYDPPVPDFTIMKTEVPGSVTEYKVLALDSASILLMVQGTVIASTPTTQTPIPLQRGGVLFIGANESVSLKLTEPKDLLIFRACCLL

[3] = biological target: T1, Mannose-6-phosphate isomerase; test: human PMI inhibitors, high substrate, primary screen, biochemical, fluorescence intensity, high mannose 6-phosphate (AID 1220)
[4] = biological target: Endoplasmic reticulum aminopeptidase 1 (Homo sapiens, UniProt Q9NZ08); test: ERAP1 aminopeptidase inhibitors, dose response, biochemical, cherry-pick, set 2, plate reader (AID 743314)
[5] = biological target: T2, Cytochrome P450 1A2 (Homo sapiens, UniProt P05177);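 further: PubChem cytochrome P450 panel assay, CYP1A2 panel member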
T2 sequence (P05177 whole entry): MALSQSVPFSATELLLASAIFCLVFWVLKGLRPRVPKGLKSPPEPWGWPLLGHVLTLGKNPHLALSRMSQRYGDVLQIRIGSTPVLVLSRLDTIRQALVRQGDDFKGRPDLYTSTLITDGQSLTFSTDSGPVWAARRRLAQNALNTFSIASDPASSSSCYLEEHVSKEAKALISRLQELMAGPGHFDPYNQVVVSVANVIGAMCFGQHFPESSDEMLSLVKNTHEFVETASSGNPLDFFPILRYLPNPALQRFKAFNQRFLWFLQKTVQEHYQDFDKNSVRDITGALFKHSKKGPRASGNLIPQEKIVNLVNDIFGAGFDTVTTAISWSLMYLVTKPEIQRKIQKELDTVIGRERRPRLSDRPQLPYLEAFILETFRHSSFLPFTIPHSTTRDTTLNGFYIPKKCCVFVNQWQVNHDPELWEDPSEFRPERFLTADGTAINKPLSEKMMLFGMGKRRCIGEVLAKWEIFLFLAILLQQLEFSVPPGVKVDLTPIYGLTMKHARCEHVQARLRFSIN

[6] = biological target: Cytochrome P450 3A4 (Homo sapiens, UniProt P08684);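 further: CYP3A4 tested as one member of a cytochrome P450 panel screen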
[7] = tested on: Streptococcus sp. 'group A'; test: growth inhibition of control SK(-) GAS strain, dose response, counter-screen for streptokinase expression inhibitor project, luminescence, kanamycin, BacTiterGlo, confirmation (AID 1900); format: functional, organism-based
[8] = biological target: T3, Streptokinase A (Streptococcus pyogenes serotype M1, UniProt P10520); test: S. pyogenes streptokinase expression inhibitors, potency, dose response, plasminogen activation absorbance, OD405 (AID 1914); format: functional, Streptococcus pyogenes M1 GAS;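 further: secreted streptokinase activity via plasminogen activation per viability signal from cell pellet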
T3 sequence (P10520 whole entry): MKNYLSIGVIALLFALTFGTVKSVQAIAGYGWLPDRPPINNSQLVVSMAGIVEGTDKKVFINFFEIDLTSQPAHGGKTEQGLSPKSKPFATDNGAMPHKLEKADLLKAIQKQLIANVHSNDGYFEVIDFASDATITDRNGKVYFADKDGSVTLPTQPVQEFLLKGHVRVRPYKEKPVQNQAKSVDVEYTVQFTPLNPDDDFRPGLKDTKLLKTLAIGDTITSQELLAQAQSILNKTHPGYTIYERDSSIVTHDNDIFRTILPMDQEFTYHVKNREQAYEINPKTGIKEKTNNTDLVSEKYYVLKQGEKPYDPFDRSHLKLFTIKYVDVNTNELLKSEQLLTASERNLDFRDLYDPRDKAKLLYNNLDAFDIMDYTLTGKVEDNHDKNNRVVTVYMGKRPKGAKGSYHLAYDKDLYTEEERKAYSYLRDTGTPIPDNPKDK

[9] = HIV-1 Env-mediated cell fusion inhibitors, dose response, CCR5-tropic Env (AID 2279); format: functional
[10] = tested on: Streptococcus; test: Group A Streptococcus viability loss, dose response, counter-screen for streptokinase expression inhibitor project, luminescence, BacTiterGlo (AID 1915); format: functional, organism-based;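 further: potency for reduction of bacterial viability or growth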
[11] = biological target: T4, Microphthalmia-associated transcription factor (Homo sapiens, UniProt O75030); test: TRPM1 promoter luciferase signal decrease, dose response, MITF inhibitor project, cell-based, SK-MEL-5, cherry-picked, set 3 (AID 493073); format: functional
T4 sequence (O75030 whole entry): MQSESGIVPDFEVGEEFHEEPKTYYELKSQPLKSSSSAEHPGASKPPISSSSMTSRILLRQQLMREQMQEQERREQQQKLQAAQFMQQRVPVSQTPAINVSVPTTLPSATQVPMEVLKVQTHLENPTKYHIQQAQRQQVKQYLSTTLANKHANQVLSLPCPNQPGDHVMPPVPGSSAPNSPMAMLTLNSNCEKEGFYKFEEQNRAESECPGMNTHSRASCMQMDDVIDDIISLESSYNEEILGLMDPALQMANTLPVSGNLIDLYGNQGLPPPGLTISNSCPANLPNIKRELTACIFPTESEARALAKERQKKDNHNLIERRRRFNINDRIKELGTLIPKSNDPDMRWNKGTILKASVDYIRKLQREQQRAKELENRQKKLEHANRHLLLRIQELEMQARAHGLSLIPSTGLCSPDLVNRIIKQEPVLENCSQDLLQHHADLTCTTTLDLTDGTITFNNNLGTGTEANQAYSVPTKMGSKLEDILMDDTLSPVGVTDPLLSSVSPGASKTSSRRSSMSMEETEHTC

[12] = biological target: T5, Alkaline phosphatase, tissue-nonspecific isozyme (Homo sapiens, UniProt P05186)
T5 sequence (P05186 whole entry): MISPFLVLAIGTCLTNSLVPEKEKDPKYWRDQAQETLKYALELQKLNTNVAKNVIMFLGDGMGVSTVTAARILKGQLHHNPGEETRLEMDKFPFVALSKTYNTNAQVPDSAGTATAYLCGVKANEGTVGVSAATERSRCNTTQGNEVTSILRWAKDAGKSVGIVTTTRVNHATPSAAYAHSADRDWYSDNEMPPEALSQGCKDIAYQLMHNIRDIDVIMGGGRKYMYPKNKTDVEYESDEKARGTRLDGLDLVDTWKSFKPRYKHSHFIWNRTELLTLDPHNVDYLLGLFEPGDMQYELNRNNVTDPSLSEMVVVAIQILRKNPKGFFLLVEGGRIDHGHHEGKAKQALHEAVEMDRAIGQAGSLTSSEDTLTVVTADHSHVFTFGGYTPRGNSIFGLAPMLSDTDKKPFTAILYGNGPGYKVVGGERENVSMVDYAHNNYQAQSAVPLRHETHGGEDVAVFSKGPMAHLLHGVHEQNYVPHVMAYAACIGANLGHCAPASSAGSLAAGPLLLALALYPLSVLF

[13] = biological target: Cytochrome P450 2D6 (Homo sapiens, UniProt P10635); test: qHTS Assay for Inhibitors and Substrates of Cytochrome P450 2D6. [Related pubchem assays: 410 ]; format: ADME; settings: read-out: Potency
[14] = biological target: Neuropeptide Y receptor type 1 (Homo sapiens, UniProt P25929); format: functional;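 further: HEK293 cells with a CNG channel challenged with NPY then isoproterenol; potency as antagonist that reverses NPY suppression of cAMP signal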
[15] = biological target: Neuropeptide Y receptor type 2 (Homo sapiens, UniProt P49146); format: functional, cell-based;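 further: HEK293 cells expressing the receptor and a CNG channel; stimulus was NPY near EC95 followed by isoproterenol to raise cAMP; antagonist potency measured as restoring cAMP signal that NPY suppresses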
Neuropeptide Y receptor type 2, sequence (P49146 whole entry): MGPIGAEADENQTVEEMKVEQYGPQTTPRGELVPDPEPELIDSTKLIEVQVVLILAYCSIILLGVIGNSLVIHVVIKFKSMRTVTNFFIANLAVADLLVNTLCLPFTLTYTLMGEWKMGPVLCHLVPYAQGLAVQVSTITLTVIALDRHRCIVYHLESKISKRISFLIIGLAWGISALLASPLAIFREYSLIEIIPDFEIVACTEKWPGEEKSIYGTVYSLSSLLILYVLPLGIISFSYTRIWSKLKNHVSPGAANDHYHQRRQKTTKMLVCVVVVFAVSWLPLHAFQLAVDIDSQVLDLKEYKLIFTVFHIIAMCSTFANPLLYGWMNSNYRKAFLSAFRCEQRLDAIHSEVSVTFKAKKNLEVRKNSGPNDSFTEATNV

Cytochrome P450 2D6, sequence (P10635 whole entry): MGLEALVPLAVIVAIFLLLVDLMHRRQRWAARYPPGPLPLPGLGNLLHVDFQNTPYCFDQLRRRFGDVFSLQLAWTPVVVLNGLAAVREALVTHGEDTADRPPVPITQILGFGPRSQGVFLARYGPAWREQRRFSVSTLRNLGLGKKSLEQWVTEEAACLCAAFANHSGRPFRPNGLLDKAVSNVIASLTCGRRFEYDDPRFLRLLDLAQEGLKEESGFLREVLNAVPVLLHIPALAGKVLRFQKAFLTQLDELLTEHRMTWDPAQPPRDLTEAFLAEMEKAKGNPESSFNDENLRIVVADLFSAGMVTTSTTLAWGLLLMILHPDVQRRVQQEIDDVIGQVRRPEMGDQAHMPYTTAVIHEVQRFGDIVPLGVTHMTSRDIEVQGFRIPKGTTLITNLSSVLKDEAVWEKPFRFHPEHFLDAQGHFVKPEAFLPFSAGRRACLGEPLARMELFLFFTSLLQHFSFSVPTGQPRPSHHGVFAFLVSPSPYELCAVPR
Neuropeptide Y receptor type 1, sequence (P25929 whole entry): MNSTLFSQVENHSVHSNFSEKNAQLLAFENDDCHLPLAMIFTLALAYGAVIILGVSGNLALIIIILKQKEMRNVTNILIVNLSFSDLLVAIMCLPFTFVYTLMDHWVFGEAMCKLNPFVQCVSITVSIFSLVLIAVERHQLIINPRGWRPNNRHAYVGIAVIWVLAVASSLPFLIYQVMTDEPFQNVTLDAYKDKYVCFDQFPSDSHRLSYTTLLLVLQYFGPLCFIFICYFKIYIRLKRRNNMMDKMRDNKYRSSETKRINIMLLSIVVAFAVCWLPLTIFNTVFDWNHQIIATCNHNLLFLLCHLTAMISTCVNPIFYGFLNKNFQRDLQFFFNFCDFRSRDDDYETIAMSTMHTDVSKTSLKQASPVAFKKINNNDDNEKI
Cytochrome P450 3A4, sequence (P08684 whole entry): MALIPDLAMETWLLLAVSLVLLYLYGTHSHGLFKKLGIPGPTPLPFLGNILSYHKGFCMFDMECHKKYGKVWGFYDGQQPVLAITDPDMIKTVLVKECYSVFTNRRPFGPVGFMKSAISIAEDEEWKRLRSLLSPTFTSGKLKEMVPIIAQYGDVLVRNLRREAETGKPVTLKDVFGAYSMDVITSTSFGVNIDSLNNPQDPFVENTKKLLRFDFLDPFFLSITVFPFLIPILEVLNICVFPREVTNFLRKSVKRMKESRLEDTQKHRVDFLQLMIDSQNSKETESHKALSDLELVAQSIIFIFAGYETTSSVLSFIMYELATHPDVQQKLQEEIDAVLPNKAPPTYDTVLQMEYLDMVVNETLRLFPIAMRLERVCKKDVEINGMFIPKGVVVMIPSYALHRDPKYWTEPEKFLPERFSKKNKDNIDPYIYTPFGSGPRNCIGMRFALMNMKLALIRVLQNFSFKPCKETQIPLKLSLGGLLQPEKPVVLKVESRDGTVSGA
Endoplasmic reticulum aminopeptidase 1, sequence (Q9NZ08 whole entry): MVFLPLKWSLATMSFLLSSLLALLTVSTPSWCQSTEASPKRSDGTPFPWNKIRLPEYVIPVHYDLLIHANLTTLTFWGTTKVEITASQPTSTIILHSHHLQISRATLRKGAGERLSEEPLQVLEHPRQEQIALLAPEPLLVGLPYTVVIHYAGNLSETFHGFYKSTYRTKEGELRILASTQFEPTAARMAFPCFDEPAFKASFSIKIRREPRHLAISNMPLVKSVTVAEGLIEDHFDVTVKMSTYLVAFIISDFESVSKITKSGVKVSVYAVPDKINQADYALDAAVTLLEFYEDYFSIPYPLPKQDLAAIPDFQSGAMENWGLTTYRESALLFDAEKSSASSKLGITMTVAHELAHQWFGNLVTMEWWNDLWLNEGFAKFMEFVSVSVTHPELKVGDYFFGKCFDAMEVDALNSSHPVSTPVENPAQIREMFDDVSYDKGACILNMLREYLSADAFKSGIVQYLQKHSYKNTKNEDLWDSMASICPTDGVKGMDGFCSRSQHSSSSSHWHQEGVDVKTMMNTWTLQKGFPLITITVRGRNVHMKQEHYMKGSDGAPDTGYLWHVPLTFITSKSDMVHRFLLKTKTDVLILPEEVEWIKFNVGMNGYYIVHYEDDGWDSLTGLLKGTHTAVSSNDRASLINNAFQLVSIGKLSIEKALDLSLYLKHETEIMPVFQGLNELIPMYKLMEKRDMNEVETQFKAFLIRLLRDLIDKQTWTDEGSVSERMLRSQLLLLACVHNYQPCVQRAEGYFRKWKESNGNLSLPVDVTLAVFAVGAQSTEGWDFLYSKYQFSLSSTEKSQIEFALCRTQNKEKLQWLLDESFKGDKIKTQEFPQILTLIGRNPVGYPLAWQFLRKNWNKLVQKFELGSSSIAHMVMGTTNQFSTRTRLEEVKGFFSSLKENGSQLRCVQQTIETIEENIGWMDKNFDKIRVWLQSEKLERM
Large T antigen, sequence (P03070 whole entry): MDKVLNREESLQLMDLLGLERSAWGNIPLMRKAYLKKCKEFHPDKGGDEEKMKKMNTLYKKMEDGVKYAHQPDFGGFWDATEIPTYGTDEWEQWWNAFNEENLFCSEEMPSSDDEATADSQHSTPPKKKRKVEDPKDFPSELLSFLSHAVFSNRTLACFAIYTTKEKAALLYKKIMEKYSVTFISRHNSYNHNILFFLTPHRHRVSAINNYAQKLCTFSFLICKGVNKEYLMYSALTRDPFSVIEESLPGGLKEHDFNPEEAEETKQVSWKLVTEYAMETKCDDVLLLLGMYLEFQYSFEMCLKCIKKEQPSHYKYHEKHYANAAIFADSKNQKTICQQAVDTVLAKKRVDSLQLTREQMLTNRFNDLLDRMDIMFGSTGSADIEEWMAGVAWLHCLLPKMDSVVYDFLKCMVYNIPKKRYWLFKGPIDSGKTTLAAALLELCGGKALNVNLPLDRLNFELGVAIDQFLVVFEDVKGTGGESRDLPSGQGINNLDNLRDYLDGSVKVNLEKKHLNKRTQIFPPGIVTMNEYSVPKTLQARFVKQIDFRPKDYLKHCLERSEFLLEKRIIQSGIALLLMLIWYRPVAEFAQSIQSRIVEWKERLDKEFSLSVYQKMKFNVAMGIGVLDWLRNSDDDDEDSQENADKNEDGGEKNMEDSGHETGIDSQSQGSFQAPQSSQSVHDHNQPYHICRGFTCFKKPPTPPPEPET

For `O=c1ccc2cc(O)c(O)cc2o1` [ESCULETIN], the IC50 [1] was 25.9 µM (active), the IC50 [2] was > 50 µM (not active) and the IC50 [3] was > 50 µM (not active). For the same molecule, the AC50 [4] was 9.72 µM (active), the AC50 [5] was 15.8 µM (inconclusive) and the AC50 [6] was 12.6 µM (inconclusive).
In the case of `CCOc1cc(/C=N/Nc2cccc(C(=O)O)c2)ccc1OC(=O)c1ccccc1`, the EC50 [7] is reported as 3.53 µM (active), the EC50 [8] is reported as > 150 µM (not active) and the IC50 [9] is reported as 3.03 µM (active). The EC50 [10] was 17 µM (active) and the AC50 [11] was 1.38 µM (active).
With `COc1cc(C(=S)N2CCOCC2)ccc1OC(=O)/C=C/c1ccco1` the EC50 [12] was > 100 µM (not active).
For `COc1ccc(C[C@@H]2NC[C@H](O)[C@H]2OC(C)=O)cc1`, the AC50 [13] was 20 µM (inconclusive).
For `COc1ccc(Cn2c(/C=C/c3ccccc3)nc3ccccc32)cc1`, the IC50 [14] was 4.02 µM (active) and the IC50 [15] was 5.51 µM (active).
